Experimental data as given in patent US20230404985A1, “METHODS OF TREATING TUMORS AND CANCERS HAVING DYSREGULATED WNT SIGNALING PATHWAYS” (ICAHN SCHOOL OF MEDICINE AT MOUNT SINAI, priority 2020, published 2023).

Key:
[1] = system: MYC-Tp53 tumor organoid allografts; assay: MYC-Tp53 tumor organoid allografts; type: in vivo, C57BL/6J mice; details: 30 mg/kg daily oral gavage
Description: 300,000 cells per allograft were prepared in 8 mg/mL Matrigel. 6-8-week-old C57BL/6J mice were shaved the day prior to injection. A 26^5/8-gauge needle was used to implant organoids into the flank in 100 μL Matrigel. Tumor allografts were measured daily with calipers, and upon an average volumetric measurement of 100 mm^3, animals were randomized and drug dosing was started. Drugs were dosed daily at 30 mg/kg via oral gavage. Tumor allografts were also measured daily.
MYC-CTNNB1 tumor organoids were engrafted into C57BL/6 mice and treatment was started when tumor volume reached 100 mm^3.

pT367 EZH2 and pT71 ATF2 = details: MYC-CTNNB1 organoids; WNTinib 1 μM, sorafenib 10 μM, SB202190 10 μM; 48 hours time course
Description: Tumor organoids were grown in 24 well plates and were collected in Cell Recovery Solution (Corning) after drug treatment. Tumor organoids were left to rotate at 4° C. for one hour in order to dissolve the Matrigel. Tumor organoids were spun down at 300 g at 4° C. for 5 minutes. Pellets were lysed in 2× Laemmli buffer (+4% 2-mercaptoethanol) by heating at 95° C. for 10 minutes followed by 5 seconds of sonication. SDS-PAGE was run using standard procedures.

[2] = system: KIT and its downstream effector the prenyl-binding protein PDE6D; assay: NanoBRET live cell target engagement, KIT and PDE6D; type: cell-based

Compound | activity in MYC-Tp53 allografts [1] | other results
COc1cc2nccc(Oc3ccc(NC(=O)NC4CC4)c(Cl)c3)c2cc1C(N)=O [lenvatinib] | better activity | 
Oc1ccc(-c2nc(-c3ccncc3)c(-c3ccc(F)cc3)[nH]2)cc1 [SB202190] |  | temporal inhibition of pT367 EZH2 and pT71 ATF2 (pT367 EZH2 and pT71 ATF2): transient inhibition
CNC(=O)c1cc(Oc2ccc(NC(=O)Nc3ccc(Cl)c(C(F)(F)F)c3)c(F)c2)ccn1 [regorafenib] | better activity | 
CNC(=O)c1cc(Oc2ccc(NC(=O)Nc3ccc(C(F)(C(F)(F)F)C(F)(F)F)cc3)c(F)c2)ccn1 [8-50-2, 4-(3-fluoro-4-(3-(4-(perfluoropropan-2-yl)phenyl)ureido)phenoxy)-N-methylpicolinamide] |  | binding on KIT and PDE6D, comparison of WNTinib with 8-50-2 [2]: significant differences in binding
